Measured values reported in patent US10829490B2, “Substituted dihydropyrazino[1 ′,2′:1,5]pyrrolo[2,3-d]pyrimidine-based antiproliferative agents” (G1 Therapeutics, Inc., priority 2016, dated 2020).

Tests used:
CDK4/CycD = CDK4/CycD (Homo sapiens (Human), UniProt P11802); assay: CDK4/CycD kinase inhibition (Biological Table 1); type: biochemical
CDK6/CycD3 = CDK6/CycD3 (Homo sapiens (Human), UniProt Q00534); assay: CDK6/CycD3 kinase inhibition (Biological Table 1); type: biochemical
CDK2/CycE = CDK2/CycE (Homo sapiens (Human), UniProt P24941); assay: CDK2/CycE kinase inhibition (Biological Table 1); type: biochemical
CDK2/CycA = CDK2/CycA (Homo sapiens (Human), UniProt P24941); assay: CDK2/CycA kinase inhibition (Biological Table 1); type: biochemical
CDK5/p35 = CDK5/p35 (Homo sapiens (Human), UniProt Q00535); assay: CDK5/p35 kinase inhibition (Biological Table 1); type: biochemical
CDK5/p25 = CDK5/p25 (Homo sapiens (Human), UniProt Q00535); assay: CDK5/p25 kinase inhibition (Biological Table 2); type: biochemical
CDK7/CycH/MAT1 = CDK7/CycH/MAT1 (Homo sapiens (Human), UniProt P50613); assay: CDK7/CycH/MAT1 kinase inhibition (Biological Table 2); type: biochemical
CDK9/CycT = CDK9/CycT (Homo sapiens (Human), UniProt P50750); assay: CDK9/CycT kinase inhibition (Biological Table 2); type: biochemical
CDK4/CyclinD1 = CDK4/CyclinD1 (Homo sapiens (Human), UniProt P11802); assay: CDK4/cyclinD1 kinase assay, microfluidic kinase detection (Caliper, Nanosyn); type: biochemical; conditions: 12-point dose-response, ATP at Km (200 μM), enzyme 1 nM, incubation 10 hr; read-out: CDK4/Cyclin D1
Protocol: (§1) Selected compounds disclosed herein were tested in CDK4/cyclinD1, CDK2/CycA and CDK2/cyclinE kinase assays by Nanosyn (Santa Clara, Calif.) to determine their inhibitory effect on these CDKs. The assays were performed using microfluidic kinase detection technology (Caliper Assay Platform). The compounds were tested in 12-point dose-response format in singlicate at Km for ATP. Phosphoacceptor substrate peptide concentration used was 1 μM for all assays and Staurosporine was used as the reference compound for all assays. Specifics of each assay are as described below:
CDK4/CyclinD1: Enzyme concentration: 1 nM; ATP concentration: 200 μM; Incubation time: 10 hr.

CDK6/Cyclin D3 = CDK6/Cyclin D3 (Homo sapiens (Human), UniProt Q00534); assay: CDK6/Cyclin D3 kinase assay (Biological Table 3); type: biochemical
Protocol: [Worded in the source for another target; this target is reported under the same test.] as §1, with “assays.” for “assays. Specifics of each assay are as described below:”

CDK2/CyclinE = CDK2/CyclinE (Homo sapiens (Human), UniProt P24941); assay: CDK2/cyclinE kinase assay, microfluidic kinase detection (Caliper, Nanosyn); type: biochemical; conditions: 12-point dose-response, ATP at Km (100 μM), enzyme 0.28 nM, incubation 1 hr; read-out: CDK2/Cyclin E
Protocol: as §1
CDK2/CyclinE: Enzyme concentration: 0.28 nM; ATP concentration: 100 μM; Incubation time: 1 hr.

CDK2/CyclinA = CDK2/CyclinA (Homo sapiens (Human), UniProt P24941); assay: CDK2/CycA kinase assay, microfluidic kinase detection (Caliper, Nanosyn); type: biochemical; conditions: 12-point dose-response, ATP at Km (50 μM), enzyme 0.2 nM, incubation 3 hr; read-out: CDK2/Cyclin A
Protocol: as §1
CDK2/CyclinA: Enzyme concentration: 0.2 nM; ATP concentration: 50 μM; Incubation time: 3 hr.

CDK9/Cyclin T = CDK9/Cyclin T (Homo sapiens (Human), UniProt P50750); assay: CDK9/Cyclin T kinase assay (Biological Table 3); type: biochemical
Hs68 cells = assay: Cell population by DNA content (<2N, G0-G1, S, G2-M) as measure of apoptotic cells; type: cell-based; conditions: at every dose administered (FIG. 4)
From the text: FIG. 4 is a bar graph showing the population of cells with a DNA content less than 2N, cells in the G0-G1 phase, cells in the S phase, and cells in the G2-M phase as a way to measure the relative amount of apoptotic cells following administration of control and Compound 28. The population of apoptotic cells after exposure to Compound 28 was greater than 70% at every dose administered. The assay was done in a population of Hs68 cells. * is <2000 events. The Compound number and dose, measured in μM and nM, are shown on the x-axis and the cell population, measured in percent, is shown on the y-axis.

Chain of CDK9/CycT (P50750 whole entry): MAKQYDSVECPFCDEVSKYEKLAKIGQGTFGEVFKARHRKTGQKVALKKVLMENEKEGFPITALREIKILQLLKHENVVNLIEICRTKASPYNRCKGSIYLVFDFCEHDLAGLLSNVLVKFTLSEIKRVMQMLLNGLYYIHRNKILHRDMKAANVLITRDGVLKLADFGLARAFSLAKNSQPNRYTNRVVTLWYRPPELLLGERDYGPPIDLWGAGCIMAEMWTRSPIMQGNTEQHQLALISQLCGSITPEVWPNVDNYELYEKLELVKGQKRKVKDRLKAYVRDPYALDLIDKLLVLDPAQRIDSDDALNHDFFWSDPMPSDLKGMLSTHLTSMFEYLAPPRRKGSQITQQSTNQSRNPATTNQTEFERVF
Chain of CDK9/CycT (O60563 whole entry partner): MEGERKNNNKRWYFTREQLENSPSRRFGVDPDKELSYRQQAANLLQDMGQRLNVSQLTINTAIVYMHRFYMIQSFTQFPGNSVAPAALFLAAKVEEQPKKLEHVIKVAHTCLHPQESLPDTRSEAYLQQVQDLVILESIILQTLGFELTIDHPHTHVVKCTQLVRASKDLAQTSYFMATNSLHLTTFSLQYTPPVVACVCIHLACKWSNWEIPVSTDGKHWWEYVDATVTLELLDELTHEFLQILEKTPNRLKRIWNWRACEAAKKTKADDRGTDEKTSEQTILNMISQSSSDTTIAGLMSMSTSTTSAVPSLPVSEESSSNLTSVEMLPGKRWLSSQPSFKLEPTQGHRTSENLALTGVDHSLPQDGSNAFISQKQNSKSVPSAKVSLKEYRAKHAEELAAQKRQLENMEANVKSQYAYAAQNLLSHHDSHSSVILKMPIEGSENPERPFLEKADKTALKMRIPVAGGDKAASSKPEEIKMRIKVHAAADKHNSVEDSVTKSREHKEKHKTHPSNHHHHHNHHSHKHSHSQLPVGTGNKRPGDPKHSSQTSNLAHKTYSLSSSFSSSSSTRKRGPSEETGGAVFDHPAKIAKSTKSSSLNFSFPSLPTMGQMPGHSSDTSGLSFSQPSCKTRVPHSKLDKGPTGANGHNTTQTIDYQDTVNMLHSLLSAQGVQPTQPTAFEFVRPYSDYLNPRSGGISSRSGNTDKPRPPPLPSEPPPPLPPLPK
Chain of CDK5/p25 (Q00535 whole entry): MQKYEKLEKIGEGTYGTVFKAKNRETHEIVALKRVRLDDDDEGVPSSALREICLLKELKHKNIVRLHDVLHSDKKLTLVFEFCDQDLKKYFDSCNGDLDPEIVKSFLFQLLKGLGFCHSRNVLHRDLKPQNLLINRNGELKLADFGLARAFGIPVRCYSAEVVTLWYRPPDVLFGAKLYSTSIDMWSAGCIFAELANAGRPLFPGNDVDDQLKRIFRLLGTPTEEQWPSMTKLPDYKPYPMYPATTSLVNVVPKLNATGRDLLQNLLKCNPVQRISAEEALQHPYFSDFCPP
Chain of CDK5/p35 (Q00535 whole entry): as above
Chain of CDK5/p35 (Q15078 whole entry partner): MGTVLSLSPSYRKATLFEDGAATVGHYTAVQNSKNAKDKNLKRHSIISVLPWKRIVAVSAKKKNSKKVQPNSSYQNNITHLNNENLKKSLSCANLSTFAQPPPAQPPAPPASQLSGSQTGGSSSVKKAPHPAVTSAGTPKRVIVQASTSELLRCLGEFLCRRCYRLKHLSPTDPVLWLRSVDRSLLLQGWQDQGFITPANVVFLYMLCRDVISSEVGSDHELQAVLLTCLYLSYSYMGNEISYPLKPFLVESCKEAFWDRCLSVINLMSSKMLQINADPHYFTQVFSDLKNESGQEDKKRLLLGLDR
Chain of CDK7/CycH/MAT1 (P50613 whole entry): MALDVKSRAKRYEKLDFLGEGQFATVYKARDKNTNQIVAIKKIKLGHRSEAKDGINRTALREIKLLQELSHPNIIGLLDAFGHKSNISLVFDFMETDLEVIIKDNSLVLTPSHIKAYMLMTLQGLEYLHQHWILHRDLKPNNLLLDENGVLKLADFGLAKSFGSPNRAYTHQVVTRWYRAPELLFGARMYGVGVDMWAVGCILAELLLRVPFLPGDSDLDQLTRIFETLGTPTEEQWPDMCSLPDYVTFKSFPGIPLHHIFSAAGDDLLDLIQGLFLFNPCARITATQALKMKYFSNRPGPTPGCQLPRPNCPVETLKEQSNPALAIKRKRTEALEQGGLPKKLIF
Chain of CDK7/CycH/MAT1 (P51946 whole entry partner): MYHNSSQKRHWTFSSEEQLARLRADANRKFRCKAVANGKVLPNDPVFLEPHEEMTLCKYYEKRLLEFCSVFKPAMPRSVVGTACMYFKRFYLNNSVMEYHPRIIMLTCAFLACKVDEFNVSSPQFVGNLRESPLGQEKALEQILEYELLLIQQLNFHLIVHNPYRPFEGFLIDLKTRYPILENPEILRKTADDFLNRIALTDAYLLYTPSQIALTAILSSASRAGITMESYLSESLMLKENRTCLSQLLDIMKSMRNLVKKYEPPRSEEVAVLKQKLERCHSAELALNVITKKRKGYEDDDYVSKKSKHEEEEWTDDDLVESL
Chain of CDK7/CycH/MAT1 (P51948 whole entry partner): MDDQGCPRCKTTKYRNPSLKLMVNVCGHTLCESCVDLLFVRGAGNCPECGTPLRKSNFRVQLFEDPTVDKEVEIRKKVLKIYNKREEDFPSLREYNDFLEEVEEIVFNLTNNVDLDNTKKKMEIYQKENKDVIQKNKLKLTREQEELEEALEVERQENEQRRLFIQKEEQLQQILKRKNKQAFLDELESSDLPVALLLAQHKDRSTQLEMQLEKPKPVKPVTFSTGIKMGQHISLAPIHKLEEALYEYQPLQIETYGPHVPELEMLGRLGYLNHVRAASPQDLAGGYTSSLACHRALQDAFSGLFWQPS
Chain of CDK6/CycD3 (Q00534 whole entry): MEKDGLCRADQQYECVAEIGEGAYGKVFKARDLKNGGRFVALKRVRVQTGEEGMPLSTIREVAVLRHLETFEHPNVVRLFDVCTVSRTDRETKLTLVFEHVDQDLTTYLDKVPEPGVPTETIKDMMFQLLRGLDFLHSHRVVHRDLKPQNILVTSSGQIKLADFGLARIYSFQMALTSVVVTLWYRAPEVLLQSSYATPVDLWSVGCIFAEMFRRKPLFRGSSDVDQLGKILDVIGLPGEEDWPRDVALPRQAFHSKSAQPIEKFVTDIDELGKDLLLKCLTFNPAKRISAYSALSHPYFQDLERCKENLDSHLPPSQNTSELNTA
Chain of CDK6/CycD3 (P30281 whole entry partner): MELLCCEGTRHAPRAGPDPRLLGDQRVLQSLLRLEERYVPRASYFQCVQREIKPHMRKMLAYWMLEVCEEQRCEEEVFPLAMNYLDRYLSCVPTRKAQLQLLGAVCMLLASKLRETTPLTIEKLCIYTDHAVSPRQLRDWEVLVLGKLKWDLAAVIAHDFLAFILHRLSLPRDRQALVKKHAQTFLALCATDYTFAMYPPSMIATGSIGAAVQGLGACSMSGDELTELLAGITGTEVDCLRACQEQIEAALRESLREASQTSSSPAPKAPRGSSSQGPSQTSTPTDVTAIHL
Chain of CDK4/CycD (P11802 whole entry): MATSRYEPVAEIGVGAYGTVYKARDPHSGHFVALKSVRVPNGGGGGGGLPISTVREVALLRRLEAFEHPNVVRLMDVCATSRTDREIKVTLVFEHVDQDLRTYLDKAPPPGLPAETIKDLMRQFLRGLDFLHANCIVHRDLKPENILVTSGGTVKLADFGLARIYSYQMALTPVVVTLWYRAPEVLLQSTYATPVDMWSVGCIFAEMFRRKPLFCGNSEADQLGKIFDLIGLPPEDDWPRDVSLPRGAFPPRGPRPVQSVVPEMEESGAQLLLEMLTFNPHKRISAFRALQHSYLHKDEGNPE
Chain of CDK4/CycD (P24385 whole entry partner): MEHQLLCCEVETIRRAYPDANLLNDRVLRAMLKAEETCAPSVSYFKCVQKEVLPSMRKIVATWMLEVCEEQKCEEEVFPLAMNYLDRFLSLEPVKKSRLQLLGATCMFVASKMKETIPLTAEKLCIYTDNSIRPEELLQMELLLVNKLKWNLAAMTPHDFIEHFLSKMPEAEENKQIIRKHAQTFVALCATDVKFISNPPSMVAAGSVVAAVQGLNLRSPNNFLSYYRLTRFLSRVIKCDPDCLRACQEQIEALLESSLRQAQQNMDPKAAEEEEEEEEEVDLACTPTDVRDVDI
Chain of CDK9/Cyclin T (P50750 whole entry): as the sequence (P50750 whole entry) above
Chain of CDK9/Cyclin T (O60563 whole entry partner): as the sequence (O60563 whole entry partner) above
Chain of CDK6/Cyclin D3 (Q00534 whole entry): as the sequence (Q00534 whole entry) above
Chain of CDK6/Cyclin D3 (P30281 whole entry partner): as the sequence (P30281 whole entry partner) above
Chain of CDK4/CyclinD1 (P11802 whole entry): as the sequence (P11802 whole entry) above
Chain of CDK4/CyclinD1 (P24385 whole entry partner): as the sequence (P24385 whole entry partner) above

Structure (SMILES): CN1CCN(c2ccc(Nc3ncc4c(n3)N3CCCCC3CC4=O)nc2)CC1 (stereo not drawn) [Compound 7, 2-((5-(4-methylpiperazin-1-yl)pyridin-2-yl)amino)-6,6a,7,8,9,10-hexahydro-5H-pyrimido[5,4-c]quinolizin-5-one]
- IC50 (CDK4/CycD): 4.7 µM
- IC50 (CDK6/CycD3): 1.8 µM
- IC50 (CDK2/CycE): > 100 µM
- IC50 (CDK2/CycA): > 100 µM
- IC50 (CDK5/p35): > 100 µM
- IC50 (CDK5/p25): > 100 µM
- IC50 (CDK7/CycH/MAT1): > 100 µM
- IC50 (CDK9/CycT): > 100 µM

Structure (SMILES): CCOC(=O)C1C(=O)c2cnc(Nc3ccc(N4CCN(C)CC4)cn3)nc2N2CCCCC12 (stereo not drawn) [Compound 8, ethyl 2-((5-(4-methylpiperazin-1-yl)pyridin-2-yl)amino)-5-oxo-6,6a,7,8,9,10-hexahydro-5H-pyrimido[5,4-c]quinolizine-6-carboxylate]
- IC50 (CDK4/CycD): 4.1 µM
- IC50 (CDK6/CycD3): 3.5 µM
- IC50 (CDK2/CycE): > 100 µM
- IC50 (CDK2/CycA): > 100 µM
- IC50 (CDK5/p35): > 100 µM
- IC50 (CDK5/p25): > 100 µM
- IC50 (CDK7/CycH/MAT1): > 100 µM
- IC50 (CDK9/CycT): > 100 µM

Structure (SMILES): CN1CCN(c2ccc(Nc3ncc4c(n3)N3C(=NCCC35CCCCC5)C=C4)nc2)CC1 [Compound 9, N-(5-(4-methylpiperazin-1-yl)pyridin-2-yl)-8′,9′-dihydrospiro[cyclohexane-1,10′-pyrido[1,6-a:2,3-d′]dipyrimidin]-2′-amine]
- IC50 (CDK4/CycD): 2.6 µM
- IC50 (CDK6/CycD3): 1.8 µM
- IC50 (CDK2/CycE): > 100 µM
- IC50 (CDK2/CycA): > 100 µM
- IC50 (CDK5/p35): > 100 µM
- IC50 (CDK5/p25): > 100 µM
- IC50 (CDK7/CycH/MAT1): > 100 µM
- IC50 (CDK9/CycT): > 100 µM

Structure (SMILES): CN1CCN(c2cnc(Nc3ncc4cc5n(c4n3)C3(CCCCC3)CNC5=O)nc2)CC1 [Compound 28, 2′-((5-(4-Methylpiperazin-1-yl)pyrimidin-2-yl)amino)-7′,8′-dihydro-6′H-spiro[cyclohexane-1,9′-pyrazino[1′,2′:1,5]pyrrolo [2,3-d]pyrimidin]-6′-one]
- IC50 (CDK4/CyclinD1): 0.02 µM
- IC50 (CDK6/Cyclin D3): 0.06 µM
- IC50 (CDK2/CyclinE): > 100 µM
- IC50 (CDK2/CyclinA): 13.5 µM
- IC50 (CDK9/Cyclin T): 1 µM
- population of apoptotic cells (Hs68 cells): greater than 70%
